What was measured:
[1] = molecular target: HCV NS3/4A protease complex (Hepatitis C virus genotype 1a, UniProt P27958, C1454S/C1711G); test: Recombinant HCV NS3/4A protease complex FRET peptide assay (strain not stated); type: biochemical; settings: IC50, NS3/4A protease enzyme assay, strain not stated; activity ranges
Excerpt: The purpose of this in vitro assay was to measure the inhibition of HCV NS3 protease complexes, derived from the BMS, H77C or J416S strains, as described below, by compounds of the present invention.
Serum from an HCV-infected patient was obtained from Dr. T. Wright, San Francisco Hospital. An engineered full-length cDNA template of the HCV genome (BMS strain) was constructed from DNA fragments obtained by reverse transcription-PCR (RT-PCR) of serum RNA and using primers selected on the basis of homology between other genotype 1a strains. […] The infectious clones, H77C (1a genotype) and J4L6S (1b genotype) were obtained from R. Purcell (NIH) and the sequences are published in genebank (AAB67036, see Yanagi, M., Purcell, R. H., Emerson, S. U. and Bukh, J. Proc. Natl. Acad. Sci. U.S.A. 94(16),8738-8743 (1997); AF054247, see Yanagi, M., St Claire, M., Shapiro, M., Emerson, S. U., Purcell, R. H. and Bukh, J, Virology 244 (1), 161-172. (1998)).
The BMS, H77C and J4L6S strains were used for production of recombinant NS3/4A protease complexes. DNA encoding the recombinant HCV NS3/4A protease complex (amino acid 1027 to 1711) for these strains were manipulated as described by P. Gallinari et al. (see Gallinari P, Paolini C, Brennan D, Nardi C, Steinkuhler C, De Francesco R. Biochemistry. 38(17):5620-32, (1999)). Briefly, a three-lysine solubilizing tail was added at the 3′-end of the NS4A coding region. The cysteine in the P1 position of the NS4A-NS4B cleavage site (amino acid 1711) was changed to a glycine to avoid the proteolytic cleavage of the lysine tag. Furthermore, a cysteine to serine mutation was introduced by PCR at amino acid position 1454 to prevent the autolytic cleavage in the NS3 helicase domain. The variant DNA fragment was cloned in the pET21b bacterial expression vector and the NS3/4A complex was expressed in E. coli BL21 (DE3) following the protocol described by P. Gallinari et al. (see Gallinari P, Brennan D, Nardi C, Brunetti M, Tomei L, Steinkuhler C, De Francesco R., J Virol. 72(8):6758-69 (1998)) with modifications. Briefly, NS3/4A expression was induced with 0.5 mM IPTG for 22 hr at 20° C. […] The cells were resuspended in lysis buffer (10 mL/g) consisting of 25 mM HEPES, pH 7.5, 20% glycerol, 500 mM NaCl, 0.5% Triton-X100, 1 ug/ml lysozyme, 5 mM MgCl2, 1 ug/ml DNaseI 5 mM β-Mercaptoethanol (βME), Protease inhibitor—EDTA free, homogenized and incubated for 20 mins at 4° C. The homogenate was sonicated and clarified by ultra-centrifugation at 235000 g for 1 hr at 4° C. Imidazole was added to the supernatant to a final concentration of 15 mM and the pH adjusted to 8.0. The crude protein extract was loaded on a Ni-NTA column pre-equilibrated with buffer B (25 mM HEPES, pH 8.0, 20% glycerol, 500 mM NaCl, 0.5% Triton-X100, 15 mM imidazole, 5 mM βME). The sample was loaded at a flow rate of 1 mL/min. The column was washed with 15 column volumes of buffer C (same as buffer B except with 0.2% Triton-X100). The protein was eluted with 5 column volumes of 200 mM Imidazole in buffer.
NS3/4A protease complex-containing fractions were pooled and loaded on a desalting column Superdex-S200 pre-equilibrated with buffer D (25 mM HEPES, pH 7.5, 20% glycerol, 300 mM NaCl, 0.2% Triton-X100, 10 mM βME). Sample was loaded at a flow rate of 1 mL/min. NS3/4A protease complex-containing fractions were pooled and concentrated to approximately 0.5 mg/ml.

[2] = system: HCV replicon in Huh7 cells; test: HCV replicon cell-based assay; design: species or system HCV strain 1B; settings: Hepatitis C virus, Huh-7, 96 h; HCV replicon, Huh7 cells, 4 days; activity ranges; read-out: EC50
Excerpt: An HCV replicon whole cell system was established as described by Lohmann V, Korner F, Koch J, Herian U, Theilmann L, Bartenschlager R., Science 285(5424):110-3 (1999). This system enabled us to evaluate the effects of our HCV Protease compounds on HCV RNA replication. Briefly, using the HCV strain 1B sequence described in the Lohmann paper (Assession number:AJ238799), an HCV cDNA was generated encoding the 5′ internal ribosome entry site (IRES), the neo gene, the EMCV-IRES and the HCV nonstructural proteins, NS3-NS5B, and 3′ NTR. […] Resulting cell lines were characterized for positive and negative RNA production and protein production over time.
Huh7 cells, constitutively expressing the HCV replicon, were grown in DMEM containing 10% FCS (Fetal calf serum) and 1 mg/ml G418 (Gibco-BRL). Cells were seeded the night before (1.5×10^4 cells/well) in 96-well tissue-culture sterile plates. Compound was prepared in DMEM containing 4% FCS, 1:100 Penicillin/Streptomysin, 1:100 L-glutamine and 0.5% DMSO. Compound/DMSO mixes were added to the cells and incubated for 4 days at 37° C. After 4 days, cells were either lyzed using the Rneasy kit (Qiagen) to isolate and purify RNA for an EC50 determination or assessed for cytotoxicity using alamar Blue (Trek Diagnotstic Systems) for a CC50 reading. For an EC50 determination, purified total RNA was normalized using RiboGreen (Jones L J, Yue S T, Cheung C Y, Singer V L, Anal. Chem., 265(2):368-74 (1998)) and relative quantitation of HCV RNA expression assessed using the Taqmann procedure (Kolykhalov A A, Mihalik K, Feinstone S M, Rice C M, Journal of Virology 74, 2046-2051 (2000)). Briefly, RNA made to a volume of 5 μl (≦1 ng) was added to a 20 μl Ready-Mix containing the following: 5×EZ rTth buffer, 3 mM MnOAc2, 3 mM dNTPs, 200 nM forward primer, 600 nM reverse primer, 100 nM probe and rTth polymerase. Samples containing known concentrations of HCV RNA transcript were run as standards. Using the following cycling protocol (95° C., 1 min; 60° C., 0.5 min; 95° C., 2 min; 40 cycles of 94° C., 0.5 min, 60° C.; 1 min; and completing with 60° C., 10 min), HCV RNA expression was quantitated as described in the Perkin Elmer manual. The toxicity of compound (CC50) was determined by adding 1/10th volume of alamar Blue to the media incubating the cells. After 4 hr, the fluorescence signal from each well was read, with an excitation wavelength at 530 nm and an emission wavelength of 580 nm, using the Cytofluor Series 4000 (Perspective Biosystems).

Chain of HCV NS3/4A protease complex (P27958 1027-1711, stated change not applied): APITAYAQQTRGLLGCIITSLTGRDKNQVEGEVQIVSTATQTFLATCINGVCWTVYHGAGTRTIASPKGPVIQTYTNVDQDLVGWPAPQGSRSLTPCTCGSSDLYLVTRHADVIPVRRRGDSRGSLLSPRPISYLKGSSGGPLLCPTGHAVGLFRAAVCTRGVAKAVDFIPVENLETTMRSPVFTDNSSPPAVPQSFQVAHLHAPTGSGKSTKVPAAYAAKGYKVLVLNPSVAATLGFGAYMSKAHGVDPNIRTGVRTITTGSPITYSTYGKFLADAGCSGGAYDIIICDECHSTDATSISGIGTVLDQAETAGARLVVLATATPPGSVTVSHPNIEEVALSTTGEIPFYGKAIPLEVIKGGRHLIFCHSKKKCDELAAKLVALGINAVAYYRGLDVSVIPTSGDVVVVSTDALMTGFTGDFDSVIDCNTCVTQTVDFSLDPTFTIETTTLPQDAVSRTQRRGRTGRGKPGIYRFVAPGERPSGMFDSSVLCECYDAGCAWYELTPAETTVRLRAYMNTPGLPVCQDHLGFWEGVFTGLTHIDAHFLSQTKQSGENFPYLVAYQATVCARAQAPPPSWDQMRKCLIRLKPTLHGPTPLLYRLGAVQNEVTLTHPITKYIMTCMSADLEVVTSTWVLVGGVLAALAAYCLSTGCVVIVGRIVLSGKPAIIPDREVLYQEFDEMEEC
Chain of HCV NS3/4A protease complex (P27958 1027-1711, stated change not applied): as above

Structure (SMILES)	IC50 [1] [nM]	EC50 [2] [nM]
C=CC1C[C@]1(NC(=O)[C@@H]1C[C@@H](Oc2cc(-c3ccccc3)nc3cc(OC)ccc23)CN1C(=O)[C@@H](NC(=O)OC(C)(C)C)C(C)(C)C)C(=O)NS(=O)(=O)CCCC (stereo partly shown) [Compound 23]	< 50	< 500
C=CC1C[C@]1(NC(=O)[C@@H]1C[C@@H](Oc2cc(-c3ccccc3)nc3cc(OC)ccc23)CN1C(=O)C(NC(=O)OC(C)(C)C)C(C)(C)C)C(=O)NS(=O)(=O)c1cccc2ccccc12 (stereo partly shown) [Compound 35]	< 50	< 500
C=C[C@@H]1C[C@]1(NC(=O)C1C[C@@H](Oc2cc(-c3ccccc3)nc3cc(OC)ccc23)CN1C(=O)[C@@H](NC(=O)CC1CC1)C(C)(C)C)C(=O)NS(=O)(=O)C1CC1 (stereo partly drawn) [Compound 104, 1-[2S-(2-cyclopropyl-acetylamino)-3,3-dimethyl-butyryl]-4R-(7-methoxy-2-phenyl-quinolin-4-yloxy)-pyrrolidine-2S-carboxylic acid (1R-cyclopropanesulfonylaminocarbonyl-2S-vinyl-cyclopropyl)-amide]	< 50	< 50
C=C[C@@H]1C[C@]1(NC(=O)C1C[C@@H](Oc2cc(-c3ccccc3)nc3cc(OC)ccc23)CN1C(=O)[C@@H](NC(=O)CO)C(C)(C)C)C(=O)NS(=O)(=O)C1CC1 (stereo partly drawn) [Compound 102, 1-[2S-(2-hydroxy-acetylamino)-3,3-dimethyl-butyryl]-4R-(7-methoxy-2-phenyl-quinolin-4-yloxy)-pyrrolidine-2S-carboxylic acid (1R-cyclopropanesulfonylamino-carbonyl-2S-vinyl-cyclopropyl)-amide]	< 50	< 500
C=CC1C[C@]1(NC(=O)[C@@H]1C[C@@H](Oc2cc(-c3ccccc3)nc3cc(OC)ccc23)CN1C(=O)[C@@H](NC(=O)OC(C)(C)C)C(C)C)C(=O)NS(=O)(=O)C1CCC1 (stereo partly shown) [Compound 71]	< 50	< 50
C=CC1CC1(NC(=O)OC(C)(C)C)C(=O)N1C[C@H](Oc2cc(-c3ccccc3)nc3cc(OC)ccc23)C[C@H]1C(=O)N[C@]1(C(=O)NS(=O)(=O)C2CC2)CC1CC (stereo partly shown) [Compound 69]	< 500	< 500
C=CC1C[C@]1(NC(=O)[C@@H]1C[C@@H](Oc2cc(-c3ccccc3)nc3cc(OC)ccc23)CN1C(=O)[C@@H](NC(=O)OC(C)(C)C)C(C)(C)C)C(=O)NS(=O)(=O)C(C)C (stereo partly shown) [Compound 27]	< 50	< 500
C=C1C[C@]1(NC(=O)[C@@H]1C[C@@H](Oc2cc(-c3ccccc3)nc3cc(OC)ccc23)CN1C(=O)C(NC(=O)OC(C)(C)C)C(C)(C)C)C(=O)NS(=O)(=O)c1ccc(F)cc1 (stereo partly shown) [Compound 49]	< 50	< 500
C=CC1C[C@]1(NC(=O)[C@@H]1C[C@@H](Oc2cc(-c3ccccc3)nc3cc(OC)ccc23)CN1C(=O)[C@@H](NC(=O)OC(C)(C)C)C(C)(C)C)C(=O)NS(=O)(=O)C1CCCCC1 (stereo in doubt) [Compound 13, {1-[2-(1-Cyclohexanesulfonylaminocarbonyl-2-vinylcyclopropylcarbamoyl)-4-(7-methoxy-2-phenylquinolin-4-yloxy)pyrrolidine-1-carbonyl]-2,2-dimethylpropyl}carbamic acid tert-butyl ester]	< 500	< 500
C=C[C@@H]1C[C@]1(NC(=O)C1C[C@@H](Oc2cc(-c3ccccc3)nc3cc(OC)ccc23)CN1C(=O)[C@@H](NC(=O)COc1ccc(F)cc1)C(C)(C)C)C(=O)NS(=O)(=O)C1CC1 (stereo partly drawn) [Compound 109, 1-{2S-[2-(4-Fluoro-phenoxy)-acetylamino]-3,3-dimethyl-butyryl}-4R-(7-methoxy-2-phenyl-quinolin-4-yloxy)-pyrrolidine-2S-carboxylic acid (1R-cyclopropanesulfonylaminocarbonyl-2S-vinylcyclopropyl)-amide]	< 50	< 500
COc1ccc2c(O[C@@H]3C[C@@H](C(=O)NC4(C(=O)NS(=O)(=O)C5CC5)CCC4)N(C(=O)[C@@H](NC(=O)OC(C)(C)C)C(C)(C)C)C3)cc(-c3ccccc3)nc2c1 [Compound 22]	< 50	< 500
C=CC1C[C@]1(NC(=O)[C@@H]1C[C@@H](Oc2cc(-c3ccccc3)nc3cc(OC)ccc23)CN1C(=O)[C@@H](NC(=O)OC(C)(C)C)C(C)(C)C)C(=O)NS(=O)(=O)CC1CC1 (stereo in doubt) [Compound 16, {1-[2-(1-Cyclopropylmethanesulfonylaminocarbonyl-2-vinylcyclopropylcarbamoyl)-4-(7-methoxy-2-phenylquinolin-4-yloxy)pyrrolidine-1-carbonyl]-2,2-dimethylpropyl}-carbamic acid tert-butyl ester]	< 500	< 500
C=CCC[C@](C)(NC(=O)[C@@H]1C[C@@H](Oc2cc(-c3ccccc3)nc3cc(OC)ccc23)CN1C(=O)C(NC(=O)OC(C)(C)C)C(C)(C)C)C(=O)NS(=O)(=O)c1cccc(Cl)c1 (stereo partly shown) [Compound 43]	< 50	< 500
C=CC1C[C@]1(NC(=O)C1CC(Oc2cc(-c3ccccc3)nc3cc(OC)ccc23)CN1C(=O)[C@@H](NC)C(C)(C)C)C(=O)NS(=O)(=O)C1CC1 (stereo partly drawn) [Compound 132, (3,3-dimethyl-2-methylamino-butyryl)-4R-(7-methoxy-2-phenyl-quinolin-4-yloxy)-pyrrolidine-2S-carboxylic acid (1R-cyclopropanesulfonylaminocarbonyl-2S-vinyl-cyclo-propyl)amide]	< 50	< 5000

— patent publication US6872805B2 (Bristol-Myers Squibb Company, priority 2000, dated 2005)
